Measured values taken from a melting point compilation (Tetko et al.; mined from patent text by program, amines drawn as free bases though some values may be those of a salt).

Row | melting point [°C] | Structure (SMILES)
1 | 157 to 160 | NC(=O)c1cnn2c1NCC=C2c1cccc(C(F)(F)F)c1
2 | 145 to 147 | C=Cc1c(N)nc(-c2ccc(Cl)c(OC)c2F)nc1C(=O)OC
3 | 145 to 146 | O=Cc1ccc(-c2noc(-c3ccc(C(F)(F)F)cc3)n2)cc1
4 | 155 to 160 | O=C1NCC=Cc2cc[nH]c21
5 | 143 to 145 | COc1nc(C)cnc1N(C(=O)OCC(C)C)S(=O)(=O)c1cccnc1-c1ccc(C)cc1
6 | 224 to 226 | CC(C)(C)NC(=O)c1nn(-c2ccc([N+](=O)[O-])cc2)c2c1C1CCC2C1 (centres undefined)
7 | 185 to 187 | COc1nc(Cl)cc2nc(S(=O)(=O)Nc3ccn(C)n3)nn12
8 | 236 to 237 | Cc1ccc2c(=O)[nH]c(N3CCN(CCO)CC3)cc2c1
9 | 206 to 208 | Cn1cc(C(=O)NCc2ccc(Cl)cc2)c(=O)c2cc(C#CCO)sc21
10 | 124 to 126 | CCOP(C)(=O)CCNS(=O)(=O)c1ccc(C)cc1 (centres undefined)
11 | 146 to 148 | COc1ccc(-c2nc3ccc(C(C)(C)CNS(C)(=O)=O)cc3[nH]2)cc1
12 | 85 to 86 | COc1cc(O)ccc1CCCc1ccc(O)c(CC=C(C)C)c1
13 | 245 to 248 | Cc1cc(-c2n[nH]c(-c3ccncc3)n2)ccn1
14 | 90 to 92 | COc1cc(C(=O)N(C(C)C)C(C)C)ccc1OCCCCCOc1ccc(C#N)cc1
15 | 136 to 137 | O=C(Nc1ccc(Br)cc1)c1ccccc1NCc1ccncc1
16 | 146 to 147 | Cn1nc(-c2c(Cl)cccc2Cl)nc1-c1sc(Cl)c(Cl)c1Cl
17 | 128 to 131 | Cc1c(C(=O)O)oc2ccc(OCCNC[C@@H](O)c3csc(C(F)(F)F)n3)cc12
18 | 159 to 160 | CCc1nc(C(=O)NCCc2ccc(S(N)(=O)=O)cc2)no1
19 | 270 | Cc1ccc2c(n1)C(=O)C(N)=C(Cl)C2=O

Row | melting point [°C] | Structure (SMILES)
20 | 102 to 103 | CCOC(=O)c1cn(Cc2ccc(OCc3ccccc3)cc2)nc1-c1ccccc1
21 | 164 to 167 | CC(C(N)=S)C(O)(Cn1cncn1)c1ccc(F)cc1F (centres undefined)
22 | 217 to 219 | COc1ccc(-c2cc3cc(F)c(F)cc3[nH]2)cc1NS(=O)(=O)c1cc(Cl)cc(Cl)c1
23 | 132 | CC(C)(C)ON=C1CCC(NC(=O)Oc2ccc([N+](=O)[O-])cc2)CC1 (centres undefined)
24 | 178 | Nc1cccc(C(=O)N2CC3CC(CN(Cc4ccccc4)C3)C2)c1
25 | 170 to 171 | CCCCc1ncc(/C=C(\Cc2cccs2)C(=O)O)n1Cc1cccc(OC)c1
26 | 96 to 98 | Cc1cc(C)n(C)c1C(=O)c1ccc(Cl)cc1Cl
27 | 218 to 220 | O=c1c2ccccc2nc(-c2cc(-c3ccccc3)c(N3CCOCC3)s2)n1-c1ccccc1
28 | 179 to 180 | CC(=O)c1nc2ccc(S(=O)(=O)c3ccccc3)cc2cc1O
29 | 168 to 172 | Nc1ccc(C(=O)N2CCCCc3sccc32)cc1
30 | 70 to 72 | CCCCCCOc1nc(-c2ccccc2)sc1-c1ccccc1
31 | 178 | Cc1cccc(C(=NO)c2ccc(Cl)cc2)c1O
32 | 140 to 142 | CC(Oc1ccc(Oc2cnc3cc(F)ccc3n2)cc1)C(=O)Nc1ccc(OC(F)(F)F)cc1 (centres undefined)
33 | 173 to 175 | O=c1[nH]nc2c3c(cccc13)Oc1ccc(COCCP(=O)(OCc3ccccc3)OCc3ccccc3)cc1-2
34 | 199 to 204 | Cc1ccc(S(=O)(=O)n2c(CCCC(=O)O)cc3nc(Cl)ccc32)c2ccccc12
35 | 115 to 117 | O=C(NCc1ccccc1Cl)c1cccnc1Oc1cccc(F)c1
36 | 202 | N#Cc1c(N)nc2ccc(N3CCN(Cc4ccccc4)CC3)cc2c1N=Cc1ccccc1
37 | 177 to 180 | COC(=O)c1ccccc1S(=O)(=O)NC(=O)Nc1nc(OC)n(C)n1

Row | Structure (SMILES) | melting point [°C]
38 | COc1ccc(CC(N)=O)cc1OC | 142 to 144
39 | C#CC1(OC(C)=O)CCC2C3CCC4=CC(=O)C=CC4(C)C3CCC21C (centres undefined) | 172 to 173
